Laboratory results taken from patent US20230414626A1, “INDUCTION OF FERROPTOSIS FOR CANCER THERAPY” (Memorial Sloan Kettering Cancer Center, priority 2020, published 2023).

Legend:
BT474 cells = test: Cell death quantification (Sytox Green), RSL3-induced ferroptosis; assay type: cell-based, human; conditions: fatty acid 0.5 mM, RSL3 0.5 μM, CCI-779 0.5 μM
Protocol: (§1) FIG. 1 A-D. Oncogenic activation of the PI3K-AKT-mTOR signaling pathway confers resistance to ferroptosis. (A) Genetic background of the analyzed cancer cell lines and their sensitivity to RSL3. (B) Cells were seeded in 96-well plate, 2×10^4 cells per well and incubated overnight. Cell death was induced by 24-h treatment of RSL3 with indicated concentrations. Cell death were measured by Sytox Green staining, as detailed in Methods. (C) Indicated protein components in the PI3K-AKT pathway were detected by western blot in indicated cell types. (D) Cells were treated with or without PI3K inhibitor GDC-0941 (2 μM), AKT inhibitor MK-2206 (2 μM), RSL3 (1 μM), or ferroptosis inhibitor Ferrostatin-1 (Fer-1, 1 μM) as indicated for 12 h (BT474) or 24 h (MDA-MB-453). Cell death was measured. Indicators for P values (same in all other figures): ****, P≤0.0001; *** P≤0.001; **, P≤0.01; *, P≤0.05; ns, P>0.05
(§2) FIG. 2 A-E. mTORC1, instead of mTORC2, suppresses ferroptosis. (A) MDA-MB-453 and BT474 were treated with CCI-779 (0.5 μM), RSL3 (1 μM for MDA-MB-453 cells and 0.5 μM for BT474 cells), and Fer-1 (1 μM) as indicated. (B) Cells were seeded in 6-well plate, 4×10^5 cells per well and incubated overnight. MDA-MB-453 and BT474 cells were treated as indicated. CCI-779, 0.5 μM; RSL3, 1 μM for MDA-MB-453 cells and 0.5 μM for BT474 cells; Fer-1, 1 μM. Cells were stained with 5 μM C1I-BODIPY followed by flow cytometry after 8 h-treatment. (C) 3D spheroids were treated as indicated. CCI-779, 0.5 μM; RSL3, 0.5 μM; Fer-1, 1 μM. Top panel, dead cells were stained by SYTOX Green (scale bar, 100 μm). Bottom panel, cell viability was assayed by measuring cellular ATP levels. (D) Cells expressing shRNAs targeting RPTOR or RICTOR were treated as indicated. CCI-779, 0.5 μM; RSL3, 0.5 μM; Fer-1, 1 μM. (E) Lipid peroxidation of samples as in panel D were measured.
(§3) FIG. 5 A-H. SREBP1 protects cells from ferroptosis through SCD1 activity. (A) The expression of SREBP1, and its targets SCD1, FASN, and ACACA, in control and SREBF1-sgRNA cells were detected by western blot. (B) The mRNA level of SREPF1 and its targets gene SCD were measured by RT-PCR. (C) Cells were pretreated with or without 5 μM CAY10566 overnight, and then subjected to the indicated treatments. RSL3, 0.5 μM for BT474 cells and 1 μM for MDA-MB-453 cells; CAY10566, 5 μM; Fer-1, 1 μM. (D) Cells expressing control or SCD-sgRNA were treated as indicated. RSL3, 1 μM for MDA-MB-453 cells and 0.5 μM for BT474 cells; Fer-1, 1 μM. (E) 3D spheroids derived from BT474 cells harboring control or SCD-sgRNA were treated as indicated. RSL3, 0.5 μM; CCI-779, 0.5 μM; Fer-1, 1 μM. Left, cell death staining (scale bar, 100 m). Right, cell viability. (F) SCD1 was overexpressed in BT474 cells and determined by western blot. Cells were treated as indicated. RSL3, 0.5 μM; CCI-779, 0.5 μM. (G) 3D spheroids derived from BT474 cells with control or SCD1 overexpression were treated as indicated. RSL3, 0.5 μM; CCI-779, 0.5 μM; Fer-1, 1 μM. Left, cell death staining (scale bar, 100 m). Right, cell viability. (H) Cells were treated as indicated. RSL3, 0.5 μM for BT474 and 1 μM for MDA-MB-453; CCI-779, 0.5 μM; Oleic acid (OA), 0.5 mM; stearic acid (SA), 0.5 mM.
(§4) FIG. 7 A-J. PI3K-AKT-mTOR signaling regulates ferroptosis sensitivity. (A) Cells were treated as indicated. GDC-0941, 2 μM; MK-2206, 2 μM; RSL3, 1 μM; Fer-1, 1 μM. Lipid peroxidation was measured. (B) Cells were treated with indicated conditions. Torin, 1 μM; RSL3, 1 μM for MDA-MB-453 cells and 0.5 μM for BT474 cells; Fer-1, 1 μM. Cell death was measured. (C) Cells were treated with indicated conditions. RSL3, 10 μM for MCF cells and PC-3 cells, 5 μM for T47D cells, 1 μM for HepG2 cells; Torin, 1 μM; CCI-779, 0.5 μM. (D) Cells were treated as indicated. CCI-779, 0.5 μM; Torin, 1 μM; Fer-1, 1 μM. Cell death was staining by propidium iodide (PI) (red) or Sytox Green (green) (scale bar, 100 μm). (E-F) 3D spheroids for MDA-MB-453 cells and MCF7 cells were treated as indicated. […]

MDA-MB-453 cells = test: as above; assay type: cell-based, human; conditions: fatty acid 0.5 mM, RSL3 1 μM, CCI-779 0.5 μM
Protocol: as §1, §2, §3, §4

[1] = system: panel of human cancer cell lines with defined genetic mutations; test: Sensitivity of cancer cell line panel to RSL3 (cell death, Sytox Green); assay type: cell-based; conditions: cancer cells carrying PIK3CA activating mutation or PTEN deletion; 24-h treatment
Protocol: FIG. 1 A-D. Oncogenic activation of the PI3K-AKT-mTOR signaling pathway confers resistance to ferroptosis. (A) Genetic background of the analyzed cancer cell lines and their sensitivity to RSL3. (B) Cells were seeded in 96-well plate, 2×10^4 cells per well and incubated overnight. Cell death was induced by 24-h treatment of RSL3 with indicated concentrations. Cell death were measured by Sytox Green staining, as detailed in Methods. (C) Indicated protein components in the PI3K-AKT pathway were detected by western blot in indicated cell types. […] Cell death was measured. […]
To investigate the functional interplay between ferroptosis and signaling pathways frequently mutated in cancer, we analyzed a panel of human cancer cell lines with defined genetic mutations. […]
Cells were seeded in plates at appropriate cell density and incubated overnight at 37° C. containing 5% C02, and then subjected to treatments as described in individual experiments. […] Culture plates were read by Cytation 5 at indicated time points. Percentage of cell death was calculated as Sytox Green-positive cell number over total cell number. For 3D spheroids, cell viability was determined a commercially available cell viability assay (Promega, Madison, WI, USA) following the manufacturer's instructions. […]

MDA-MB-231 cells = test: Cell death quantification, PI3K-AKT-mTOR wild-type cells; assay type: cell-based, human; conditions: MDA-MB-231, wild-type PI3K-AKT-mTOR pathway; RSL3 0.25 μM; Torin 1 μM; CCI-779 0.5 μM
Protocol: (§5) FIG. 7 A-J. PI3K-AKT-mTOR signaling regulates ferroptosis sensitivity. (A) Cells were treated as indicated. GDC-0941, 2 μM; MK-2206, 2 μM; RSL3, 1 μM; Fer-1, 1 μM. Lipid peroxidation was measured. (B) Cells were treated with indicated conditions. Torin, 1 μM; RSL3, 1 μM for MDA-MB-453 cells and 0.5 μM for BT474 cells; Fer-1, 1 μM. Cell death was measured. (C) Cells were treated with indicated conditions. RSL3, 10 μM for MCF cells and PC-3 cells, 5 μM for T47D cells, 1 μM for HepG2 cells; Torin, 1 μM; CCI-779, 0.5 μM. (D) Cells were treated as indicated. CCI-779, 0.5 μM; Torin, 1 μM; Fer-1, 1 μM. Cell death was staining by propidium iodide (PI) (red) or Sytox Green (green) (scale bar, 100 μm). […] Cell death was measured. […]
(§6) Cells were seeded in plates at appropriate cell density and incubated overnight at 37° C. containing 5% C02, and then subjected to treatments as described in individual experiments. […] Culture plates were read by Cytation 5 at indicated time points. Percentage of cell death was calculated as Sytox Green-positive cell number over total cell number. For 3D spheroids, cell viability was determined a commercially available cell viability assay (Promega, Madison, WI, USA) following the manufacturer's instructions. Viability was calculated by normalizing ATP levels of samples to that of negative controls (spheroids in normal full media without treatment).

HT1080 cells = test: as above; assay type: cell-based, human; conditions: HT1080, wild-type PI3K-AKT-mTOR pathway; RSL3 0.1 μM; Torin 1 μM; CCI-779 0.5 μM
Protocol: as §5, §6

mTORC1 activity = test: Western blot of S6K phosphorylation (pT389 S6K); assay type: cell-based, human; conditions: RSL3 0.25 μM
Protocol: FIG. 7 A-J. PI3K-AKT-mTOR signaling regulates ferroptosis sensitivity. (A) Cells were treated as indicated. GDC-0941, 2 μM; MK-2206, 2 μM; RSL3, 1 μM; Fer-1, 1 μM. Lipid peroxidation was measured. (B) Cells were treated with indicated conditions. Torin, 1 μM; RSL3, 1 μM for MDA-MB-453 cells and 0.5 μM for BT474 cells; Fer-1, 1 μM. Cell death was measured. (C) Cells were treated with indicated conditions. RSL3, 10 μM for MCF cells and PC-3 cells, 5 μM for T47D cells, 1 μM for HepG2 cells; Torin, 1 μM; CCI-779, 0.5 μM. (D) Cells were treated as indicated. CCI-779, 0.5 μM; Torin, 1 μM; Fer-1, 1 μM. Cell death was staining by propidium iodide (PI) (red) or Sytox Green (green) (scale bar, 100 μm). (E-F) 3D spheroids for MDA-MB-453 cells and MCF7 cells were treated as indicated. CCI-779, 0.5 μM; RSL3, 1 μM for MDA-MB-453 cells and 5 μM for MCF7 cells; Fer-1, 1 μM. Top panels, cell death staining (scale bar, 100 m). Bottom panels, cell viability. (G) MDA-MB-453 cells were treated as indicated for 24 h. RSL3, 1 μM; CCI-779, 0.5 μM; GDC-0941, 2 μM; MK-2206, 2 μM; Dabrafenib, 2 μM; SCH772984, 2 μM; Fer-1, 1 μM. (H) Western blot was performed to detect RPTOR and RICTOR knockdown efficiency. (I) HT1080 cells and MDA-MB-231 cells (both with wild-type PI3K-AKT-mTOR pathway) were treated as indicated. RSL3, 0.1 μM for HT1080 and 0.25 μM for MDA-MB-231; Torin, 1 μM; CCI-779, 0.5 μM; Fer-1, 1 μM. Cell death was measured. (J) Two lines of PI3K-AKT-mTOR pathway wild-type cells (HT1080 and MDA-MB-231) and two lines of cells harboring activating mutation of the pathway (BT474 and MDA-MB-453) were treated as indicated. RSL3, 0.25 μM; Fer-1, 1 μM. Western blot was performed to detect the level of pT389 S6K.
Cell lysates were resolved on SDS-PAGE gels and transferred to a nitrocellulose membranes. The membranes were incubated in 5% skim milk for 1 hour at room temperature and then incubated with primary antibodies diluted in blocking buffer at 4° C. overnight. […]

[2] = wild-type cells (HT1080 and MDA-MB-231), Fer-1 1 μM

Row | Compound | ferroptosis resistance upon treatment of CCI-779 plus RSL3 (fatty acid supplementation) (BT474 cells) | ferroptosis resistance upon treatment of CCI-779 plus RSL3 (fatty acid supplementation) (MDA-MB-453 cells) | sensitivity to ferroptosis induction by RSL3 [1] | ferroptosis induction (cell death) (MDA-MB-231 cells) | ferroptosis induction (cell death) (HT1080 cells) | mTORC1 activity as measured by S6K phosphorylation (mTORC1 activity; cells harboring pathway mutation (BT474 and MDA-MB-453)) | mTORC1 activity as measured by S6K phosphorylation (mTORC1 activity; [2])
1 | CCCCCCCC/C=C\CCCCCCCC(=O)O [oleate acid] | resulted in ferroptosis resistance | resulted in ferroptosis resistance |  |  |  |  | 
2 | COC(=O)c1ccc([C@@H]2c3[nH]c4ccccc4c3C[C@@H](C(=O)OC)N2C(=O)CCl)cc1 [RSL3] |  |  | more resistant | sufficient to induce ferroptosis | sufficient to induce ferroptosis | retained active mTORC1 | inhibited
3 | CCOC(=O)c1ccc(NC2CCCCC2)c(N)c1 [ferrostatin-1] |  |  |  |  |  |  | prevented RSL3-triggered inactivation of mTORC1 activity
4 | CCCCCC/C=C\CCCCCCCC(=O)O [palmitoleic acid] | resulted in ferroptosis resistance | resulted in ferroptosis resistance |  |  |  |  | 
